The values that follow come from US8546390B2, “6-(pyrrolopyridinyl) pyrimidin-2-ylamine derivatives and the use thereof for the treatment of cancer and AIDS” (Merck Patent GmbH, priority 2008, dated 2013).

One test deals with A2780 (ovary). In words: Inhibition of the proliferation/vitality of tumour cells (Alamar Blue test). The following applies: Homo sapiens, 96 h, A2780 ovary cell line, 4 days cultivation with test substance. The test is classed as cell-based. On the procedure: In the present experiment description, the inhibition of tumour cell proliferation/tumour cell vitality by active ingredients is described. The cells are sown in a suitable cell density in microtitre plates (96-well format) and the test substances are added in the form of a concentration series. After four further days of cultivation in serum-containing medium, the tumour cell proliferation/tumour cell vitality can be determined by means of an Alamar Blue test system.
The cells are cultivated in medium. At intervals of several days, the cells are detached from the culture dishes with the aid of trypsin solution and sown in suitable dilution in fresh medium. The cells are cultivated at 37° Celsius and 10% CO2.
A defined number of cells (for example 2000 cells) per culture/well in a volume of 180 μl of culture medium are sown in microtitre plates (96 well cell-culture plates) using a multichannel pipette. The cells are subsequently cultivated in a CO2 incubator (37° C. and 10% CO2).
The test substances are dissolved, for example, in DMSO and subsequently employed in corresponding concentration (if desired in a dilution series) in the cell culture medium. The dilution steps can be adapted depending on the efficiency of the active ingredients and the desired spread of the concentrations. Cell culture medium is added to the test substances in corresponding concentrations. The addition of the test substances to the cells can take place on the same day as the sowing of the cells. To this end, in each case 20 μl of substance solution from the predilution plate are added to the cultures/wells. The cells are cultivated for a further 4 days at 37° Celsius and 10% CO2.
In each case, 20 μl of Alamar Blue reagent are added per well, and the microtitre plates are incubated, for example, for a further seven hours in a CO2 incubator (at 37° C. and 10% CO2). The plates are measured in a reader with a fluorescence filter at a wavelength of 540 nm. The plates can be shaken gently immediately before the measurement.
The absorbance value of the medium control (no cells and test substances used) is subtracted from all other absorbance values. The controls (cells without test substance) are set equal to 100 percent, and all other absorbance values are set in relation thereto (for example in % of control): Calculation:
IC50 values (50% inhibition) are determined with the aid of statistics programs, such as, for example, RS1.
In general terms: Alamar Blue is a resazurin reagent that responds to reducing activity.

A further test addresses T1, PDK1 (Homo sapiens, UniProt O15530).
T1 construct: His6 (N)
T1 sequence (O15530 51-556): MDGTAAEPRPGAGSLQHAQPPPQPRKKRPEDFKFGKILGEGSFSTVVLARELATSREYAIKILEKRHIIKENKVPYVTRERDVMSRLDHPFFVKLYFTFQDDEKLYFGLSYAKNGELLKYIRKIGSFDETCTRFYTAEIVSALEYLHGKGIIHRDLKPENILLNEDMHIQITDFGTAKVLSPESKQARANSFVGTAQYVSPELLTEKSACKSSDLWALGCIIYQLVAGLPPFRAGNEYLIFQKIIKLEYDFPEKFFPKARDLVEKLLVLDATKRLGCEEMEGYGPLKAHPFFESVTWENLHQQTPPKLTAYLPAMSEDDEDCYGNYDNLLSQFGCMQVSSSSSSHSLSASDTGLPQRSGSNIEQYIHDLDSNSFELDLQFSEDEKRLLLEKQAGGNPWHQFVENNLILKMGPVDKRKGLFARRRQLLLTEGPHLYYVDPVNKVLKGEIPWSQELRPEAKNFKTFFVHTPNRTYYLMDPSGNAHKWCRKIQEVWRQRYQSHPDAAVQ
The test is described as follows: Test for the inhibition of PDK1 (flashplate, 33P-ATP). The class given is biochemical. On the procedure:
NO.: 1, (400 Nm), 4 μm ATP (with 0.2 μCi of ^33P-ATP/well) and the test substance in 50 μl of conventional experimental solution per well are incubated at 30° C. for 60 min. The test substances are employed in corresponding concentrations (if desired in a dilution series). The control is carried out without test substance. The reaction is stopped using standard methods and washed. The activity of the kinase is measured via the incorporated radioactivity in top count. In order to determine the non-specific kinase reaction (blank value), the experimental batches are carried out in the presence of 100 nM staurosporin.
The radioactivity (decompositions per minute) of the blank value (no use of test substance in the presence of staurosporin) is subtracted from all other radioactivity values. The controls (kinase activity without test substance) are set equal to 100 percent and all other radioactivity values (after subtracting the blank value) are expressed set in relation thereto (for example in % of the control).

[1] abbreviates: His6-PDK1(Δ1-50) 3.4 nM, 30° C., 60 min, read-out: IC50 PDK1.

Where two headings read alike, the source gives them in different places.

What is called IC50 is the point on the concentration scale where inhibition reaches its midpoint. The compound `CCCC1CCC(c2cc(-c3c[nH]c4ncccc34)nc(N)n2)CC1` (stereo not shown) [Compound A8] gave an IC50 in the test with A2780 (ovary) of 1000 to 10000 nM.

For the compound `CCc1cc(-c2c[nH]c3ncc(-c4cnn(CC(C)C)c4)cc23)nc(N)n1` [Compound A66, 4-Ethyl-6-[5-(1-isobulyl-1H-pyrazol-4-yl)-1H-pyrrolo[2,3-b]pyridin-3-yl]-pyrimidin-2-ylamine], the IC50 on PDK1 (setting [1]) is 10 to 1000 nM.

As for `CCc1cc(-c2c[nH]c3ncc(-c4ccc(N)nc4)cc23)nc(N)n1` [Compound A48, 4-[5-(6-Aminopyridin-3-yl)-1H-pyrrolo-[2,3-b]pyridin-3-yl]-6-ethylpyrimidin-2-ylamine], the IC50 at PDK1 (setting [1]) lay in the range of 10 to 1000 nM.

For `CCc1cc(-c2c[nH]c3ncc(-c4cnn(C)c4)cc23)nc(N)n1` [Compound A45, 4-ethyl-6-[5-(1-methyl-1H-pyrazol-4-yl)-1H-pyrrolo[2,3-b]pyridin-3-yl]pyrimidin-2-ylamine], the IC50 at PDK1 (setting [1]) lay within 10 to 1000 nM.

For the compound `NCCCc1cc(-c2c[nH]c3ncc(-c4ccco4)cc23)nc(N)n1` [Compound A43, 4-(3-Aminopropyl)-6-(5-furan-2-yl-1H-pyrrolo[2,3-b]pyridin-3-yl)pyrimidin-2-ylamine], the IC50 on PDK1 (setting [1]) lay within 10 to 1000 nM.

For the compound “4-(3-aminopropyl)-6-[5-(1-methyl-1H-pyrazol-4-yl)-1H-pyrrolo[2,3-b]pyridin-3-yl]pyrimidin-2-ylamine [Compound A42]”, on PDK1 (setting [1]), the IC50 is 10 to 1000 nM.

Consider `CCCCCc1cc(-c2c[nH]c3ncccc23)nc(N)n1` [Compound A6, 4-Pentyl-6-(1H-pyrrolo[2,3-b]pyridin-3-yl)pyrimidin-2-ylamine], for which the IC50 with A2780 (ovary) was in the range of 1000 to 10000 nM.

Take `CCc1cc(-c2c[nH]c3ncc(-c4cn[nH]c4)cc23)nc(N)n1` [Compound A60, 4-Ethyl-6-[5-(1H-pyrazol-4-yl)-1H-pyrrolo[2,3-b]pyridin-3-yl]pyrimidin-2-ylamine]: the IC50 at PDK1 lay in the range of 10 to 1000 nM.

Consider `NCCCc1cc(-c2c[nH]c3ncccc23)nc(N)n1` [Compound A16, 4-(3-Aminopropyl)-6-(1H-pyrrolo[2,3-b]pyridin-3-yl)pyrimidin-2-ylamine], for which, at PDK1 (setting [1]), the IC50 is 10 to 1000 nM.

For `CCc1cc(-c2c[nH]c3ncc(-c4ccco4)cc23)nc(N)n1` [Compound A49, 4-Ethyl-6-(5-furan-2-yl-1H-pyrrolo[2,3-b]pyridin-3-yl)pyrimidin-2-ylamine], the IC50 on PDK1 (setting [1]) lay within 10 to 1000 nM.

The compound `Nc1nc(-c2ccccc2)cc(-c2c[nH]c3ncccc23)n1` [Compound A2, 4-Phenyl-6-(1H-pyrrolo[2,3-b]pyridin-3-yl)pyrimidin-2-ylamine] yielded an IC50 in the test with A2780 (ovary) of 10 to 1000 nM.

Regarding `CCc1cc(-c2c[nH]c3ncccc23)nc(N)n1` [Compound A5, 4-ethyl-6-(1H-pyrrolo[2,3-b]pyridin-3-yl)pyrimidin-2-ylamine], the IC50 in the test on A2780 (ovary) lay in the range of 10 to 1000 nM.

Take `CCCCc1cc(-c2c[nH]c3ncccc23)nc(N)n1` [Compound A1, 4-butyl-6-(1H-pyrrolo[2,3-b]pyridin-3-yl)pyrimidin-2-ylamine]: in the test with A2780 (ovary), the IC50 lay within 10 to 1000 nM.

With `CCc1cc(-c2c[nH]c3ncc(-c4cnn(CCOC)c4)cc23)nc(N)n1` [Compound A56, 4-Ethyl-6-{5-[1-(2-methoxyethyl)-1H-pyrazol-4-yl]-1H-pyrrolo[2,3-b]pyridin-3-yl}pyrimidin-2-ylamine], on PDK1 (setting [1]), the IC50 lay within 10 to 1000 nM.

Turning to `CCCc1cc(-c2c[nH]c3ncccc23)nc(N)n1` [Compound A3, 4-Propyl-6-(1H-pyrrolo[2,3-b]pyridin-3-yl)pyrimidin-2-ylamine], in the test with A2780 (ovary), the IC50 was 10 to 1000 nM.

For `CCc1cc(-c2c[nH]c3ncc(Br)cc23)nc(N)n1` [Compound A32], on PDK1 (setting [1]), the IC50 was in the range of 10 to 1000 nM.
